US9364450B2, “Clenbuterol for use in treatment of autism” (STOW[…]. CELESTYNA, priority 2011, dated 2016)

Assay: Administration of clenbuterol to patients with autistic symptoms (case examples)
Type: in vivo, autistic children
Description: A patient with autistic symptoms in the form of disorders of social integration, verbal and non-verbal communication, play disorders and concomitant anxiety, especially when changing environment, was administered clenbuterol at a dose of ¼ tablet containing 20 μg of clenbuterol once daily for a period of 3 months.
A patient with pediatric autism and cerebral palsy was administered the medication at a dose of ¼ of 20 μg tablet twice daily for a period of 12 months.
A patient with early pediatric autism, psychomotor hyperactivity syndrome and speech development delay was administered clenbuterol at a dose of ¼ of 20 μg tablet once daily for a period of 12 months.
It has been assumed that clenbuterol, modulating the brain neurotransmitter systems, affects also the endocrine and immunological system. As a result, alleviation of communication disorders and improved contact with surroundings is observed in autistic children.

## CC(C)(C)NCC(O)c1cc(Cl)c(N)c(Cl)c1 (racemic) [clenbuterol, (RS)-1-(4-amino-3,5-dichlorophenyl)-2-(tert-butylamino)ethanol]
Administration at very small doses to autistic children
  Overall effects observed in autistic children: Improved contact with surroundings, better concentration, improved ability to plan a specific task, improved understanding, calming, and reduced psychomotor anxiety were observed
Administration of effective amounts of clenbuterol or its pharmaceutically effective salt
  Effect on functional disorders related to ASD: seems to practically alleviate functional disorders related to ASD
long-term administration of clenbuterol or its pharmaceutically acceptable salt
  Adverse effects: no adverse effects associated with medications previously used in treatment of autism were observed
Patient with autistic symptoms, 1/4 tablet containing 20 μg once daily for 3 months
  Change in autistic symptoms after therapy (interest in environment, contact with surroundings, anxiety): increased interest in the environment was observed; the child's contact with surroundings improved and its anxiety symptoms decreased
Patient with early pediatric autism, psychomotor hyperactivity syndrome and speech development delay, 1/4 of 20 μg tablet once daily for 12 months
  Change in autistic symptoms after treatment (speech expression, psychomotor anxiety, grimacing): Improvement in speech expression was achieved as well as reduction of psychomotor anxiety and grimacing
Patient with pediatric autism and cerebral palsy, 1/4 of 20 μg tablet twice daily for 12 months
  Change in autistic symptoms after treatment (understanding, concentration, attention, speech): improvement with respect to understanding, concentration, attention, and speech
